In ChEMBL document CHEMBL1150888, “Dragmacidins: new protein phosphatase inhibitors from a southern australian deep-water marine sponge, spongosorites sp” (1998):
In brackets after ≈: the same amount, converted by molar mass. Activity calls are given as the source filed them. The rule behind the calls is not given here.

Experiments:
Candida albicans = assay: Antifungal activity against Candida albicans; type: functional
[1] = Inhibition of PP1
Escherichia coli = assay: Antibacterial activity against Escherichia coli; type: functional
[2] = Inhibition of PP2A

Row | MIC (Candida albicans) | Activity [1] | MIC (Escherichia coli) | Activity [2] | SMILES
1 | 20 µg/mL (≈ 37.6 µM) | Active | 16 µg/mL (≈ 30.1 µM) | – | CC(C1=CNC(N)N1)c1ccc(O)c2[nH]cc(-c3cnc(-c4c[nH]c5cc(Br)ccc45)c(=O)[nH]3)c12 (configuration not stated) [DRAGMACIDIN D]
2 | 36 µg/mL (≈ 67.9 µM) | Active | 22 µg/mL (≈ 41.5 µM) | Active | C[C@@H]1c2ccc(O)c3[nH]cc(c23)-c2[nH]c(=O)c(-c3c[nH]c4cc(Br)ccc34)nc2[C@@]12CNC(N)=N2 [DRAGMACIDIN E]
